Drawing on PubChem BioAssay AID608 (Sanford-Burnham Center for Chemical Genomics, 2007), this text covers Kd for 104 molecules.

Each structure is given as a SMILES string. Calls of active or inactive are those of the source. No rule for the calls is given here.

For this assay, the target named is Peptidyl-prolyl cis-trans isomerase FKBP1A (Homo sapiens) (UniProt P62942). Put plainly: small-molecule binding to FKBP12 – biophysical, NMR detection (AID 608). Particulars: purified FKBP12.
Peptidyl-prolyl cis-trans isomerase FKBP1A (Homo sapiens), sequence (P62942 whole entry, looked up): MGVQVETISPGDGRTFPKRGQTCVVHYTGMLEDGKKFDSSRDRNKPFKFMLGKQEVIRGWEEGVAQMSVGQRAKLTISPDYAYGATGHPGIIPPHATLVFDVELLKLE
On to `Cc1cc(=O)n2[nH]c(N)nc2n1`, for which the Kd was > 4 mM (inactive).

With `Cc1cc(C)n2c(SCc3cccs3)nnc2n1`, the Kd is > 4 mM (inactive).

In the case of `O=C(O)c1cc(F)cc2c1OCOC2`, the Kd was > 4 mM (inactive).

`CC(=O)Nc1cccc(NC(=O)c2ccco2)c1`: the Kd was > 4 mM (inactive).

`Oc1ccc2c(c1)OCO2`: the Kd is > 4 mM (inactive).

For `NCCc1c[nH]c2ccccc12`, the Kd was > 4 mM (inactive).

`Cc1ccc(C(=O)Nc2nnc(-c3ccncc3)s2)o1`: the Kd is > 4 mM (inactive).

As for `CC1(C(=O)O)CC2C=CC1C2` (centres undefined), the Kd was > 4 mM (inactive).

For the molecule `CC(O)c1nc2ccccc2[nH]1` (centres undefined), the Kd is > 4 mM (inactive).

For the molecule `CN=C(C)c1c(O)n(C)c(=O)n(C)c1=O`, the Kd is > 4 mM (inactive).

Consider `COC(=O)c1ccc(/C=C2/NC(=S)NC2=O)cc1`, for which the Kd was > 4 mM (inactive).

On to `COC(=O)c1c(SC)nc(-c2ccccc2)[nH]c1=O`, for which the Kd is > 4 mM (inactive).

With `NC(=O)Cn1cnc2ccccc21`, the Kd was > 4 mM (inactive).

Turning to `Cn1cnc2c(=O)[nH]cc([N+](=O)[O-])c21`, the Kd was > 4 mM (inactive).

Take `O=C(c1ccc(Cl)s1)N1CCOCC1`: the Kd was > 4 mM (inactive).

Turning to `Cc1nn2c(=O)/c(=C/c3cccc(F)c3)sc2nc1=O`, the Kd is > 4 mM (inactive).

Turning to `CC(=O)Oc1ccc(-c2cc(=O)c3c(OC(C)=O)cc(OC(C)=O)cc3o2)cc1`, the Kd was > 4 mM (inactive).

On to `COCC(=O)Nc1cc2c3c(c1)CCN3C(=O)CC2`, for which the Kd was > 4 mM (inactive).

Regarding `Cc1nn2c(=O)c(NC(=O)c3ccccc3)cnc2s1`, the Kd was > 4 mM (inactive).

On to `CN1C2CCC1CC(OC(=O)C(CO)c1ccccc1)C2` (centres undefined), for which the Kd was > 4 mM (inactive).

As for `Nc1ccc(S(=O)(=O)Nc2ccc(F)cc2F)cc1`, the Kd was > 4 mM (inactive).

With `Cc1ccc(CN2CCN(C(=O)C3CCC3)CC2)cc1`, the Kd is > 4 mM (inactive).

Regarding `Cc1n[nH]c(=O)c2ncn(C)c12`, the Kd was > 4 mM (inactive).

On to `Cn1c(=O)n(CC(=O)N2CCOCC2)c2ccccc21`, for which the Kd is > 4 mM (inactive).

With `O=C1CCNc2cc3ccccc3cc21`, the Kd is > 4 mM (inactive).

For the molecule `O=C(O)c1ccc(-c2ccccn2)s1`, the Kd is > 4 mM (inactive).

As to `O=C(NCCO)c1cc2ccccc2cc1O`, the Kd is > 4 mM (inactive).

As for `Cc1ccc2nc(SCCC#N)nc(C)c2c1`, the Kd is > 4 mM (inactive).

`OC1CCC(C(F)(F)F)CC1` (centres undefined): the Kd was > 4 mM (inactive).

As to `C=C(C)[C@H]1Cc2c(ccc3c2O[C@@H]2COc4cc(OC)c(OC)cc4[C@@H]2C3=O)O1`, the Kd is > 4 mM (inactive).

For `COc1ccc(NC(=O)c2ccc[n+]([O-])c2)cc1`, the Kd is > 4 mM (inactive).

In the case of `COc1ccc(C(=O)NC2=NCCS2)cc1OC`, the Kd is > 4 mM (inactive).

In the case of `O=C(Nc1cnccn1)c1cccs1`, the Kd was > 4 mM (inactive).

As for `CC(=O)Nc1nnc(-c2ccccn2)o1`, the Kd is > 4 mM (inactive).

Take `S=C(c1ccc(N2CCOCC2)cc1)N1CCCCC1`: the Kd was > 4 mM (inactive).

Take `O=C(Nc1ccc2c(c1)OCO2)c1cccc(F)c1`: the Kd is > 4 mM (inactive).

Consider `O=C(NN1C(=O)C2C3C=CC(C3)C2C1=O)C1CC=CCC1` (centres undefined), for which the Kd is > 4 mM (inactive).

Turning to `COc1cc2c(cc1OC)[C@@H]1C(=O)c3ccc4c(c3O[C@@H]1CO2)CC(C(C)C)O4` (some centres undefined), the Kd is > 4 mM (inactive).

For `Cc1occc(=O)c1O`, the Kd is > 4 mM (inactive).

In the case of `OCc1cccs1`, the Kd was > 4 mM (inactive).

Consider `O=c1[nH]cc(N=Cc2ccc(F)cc2)c(=O)[nH]1`, for which the Kd is > 4 mM (inactive).

Regarding `Fc1ccc2onc(C3CCNCC3)c2c1`, the Kd was > 4 mM (inactive).

As for `OC[C@@H]1CCCN2CCCC[C@H]12`, the Kd is > 4 mM (inactive).

As for `O=C1NC2NC(=O)N(c3ccccc3)C2N1` (centres undefined), the Kd is > 4 mM (inactive).

For `O=C(CC1SC(=O)NC1=O)Nc1nccs1` (centres undefined), the Kd is > 4 mM (inactive).

For the molecule `OCc1cccc2nonc12`, the Kd was > 4 mM (inactive).

Regarding `CC(=O)Nc1ccc(NC(=O)C2CC2)cc1`, the Kd was > 4 mM (inactive).

For `C/C(O)=c1/sc2cc(C)nc(=N)n2c1=O`, the Kd is > 4 mM (inactive).

`Cc1cc2c(N)cccc2nn1`: the Kd is > 4 mM (inactive).

Consider `CN(C(=O)c1cc2cccnc2n(C)c1=O)c1ccccc1`, for which the Kd was > 4 mM (inactive).

Regarding `CCn1nccc1C(=O)Nc1ccc(Cl)cc1Cl`, the Kd is > 4 mM (inactive).

Turning to `OC1CC(c2ccccc2)NC2(CCCC2)C1` (centres undefined), the Kd is > 4 mM (inactive).

Turning to `O=C(O)c1ccc2c(c1)OCCCO2`, the Kd is > 4 mM (inactive).

As for `O=C(COc1ccc2c(c1)OCO2)N1CCOCC1`, the Kd result was “inactive”.

With `CC(C)c1ccccc1OCC(=O)N1CCOCC1`, the Kd is > 4 mM (inactive).

Consider `COc1ccc(NC(=O)CCCC(=O)O)c(OC)c1`, for which the Kd is > 4 mM (inactive).

Turning to `NC(=O)c1cccc(Cl)n1`, the Kd is > 4 mM (inactive).

With `C=C1CCC2[C@](C)(CO)[C@H](O)CC[C@@]2(C)[C@@H]1C/C=C1/C(=O)OC[C@H]1O` (some centres undefined), the Kd was > 4 mM (inactive).

Take `CCn1ccc(C(=O)Nc2nccs2)n1`: the Kd is > 4 mM (inactive).

Consider `CC1(C)C(=O)C=C[C@@]2(C)C1C=C[C@]1(C)C2CC[C@@]2(C)[C@H](c3ccoc3)OC(=O)C3OC321` (some centres undefined), for which the Kd was > 4 mM (inactive).

Take `C[C@@H]1CC[C@@]2(OC1)OC1CC3C4CC=C5C[C@@H](O)CC[C@]5(C)C4CC[C@]3(C)C1[C@@H]2C` (some centres undefined): the Kd was > 4 mM (inactive).

With `Nc1nc(SCc2ccc3c(c2)OCCO3)n[nH]1`, the Kd is > 4 mM (inactive).

In the case of `COc1ccc2[nH]cc(CCN(C)C)c2c1`, the Kd was > 4 mM (inactive).

`Cc1n[nH]c(C)c1-c1ccccc1C(=O)O`: the Kd is > 4 mM (inactive).

Turning to `CN1C2CC[C@@H]1CC(OC(=O)[C@H](CO)c1ccccc1)C2` (some centres undefined), the Kd is > 4 mM (inactive).

On to `CC(=O)Nc1ccc(S(=O)(=O)NCC2CCCO2)cc1` (centres undefined), for which the Kd was > 4 mM (inactive).

As for `OC/C=C/c1ccc(O)c(O)c1`, the Kd is > 4 mM (inactive).

As for `CCOc1ccc(C(=O)c2ccc(O)c(O)c2O)cc1`, the Kd was > 4 mM (inactive).

On to `NC(=O)C1CCN(C(=O)CN2CCc3ccccc32)CC1`, for which the Kd is > 4 mM (inactive).

As to `Nc1ncnc(NCCO)c1[N+](=O)[O-]`, the Kd is > 4 mM (inactive).

Turning to `c1ccc(CCN2CCN(CCc3ccccn3)CC2)nc1`, the Kd was > 4 mM (inactive).

In the case of `CN(C)S(=O)(=O)c1ccc(N2CCOCC2)nc1`, the Kd is > 4 mM (inactive).

Regarding `O=C(CO)N/N=C/c1ccccc1F`, the Kd was > 4 mM (inactive).

On to `C=C1C([C@]2(C)C(CC(=O)OC)[C@@](C)(COC(C)=O)OC(=O)C[C@@H]2OC(C)=O)[C@@H](OC=O)[C@H](OC(=O)C(O)C(C)CC)[C@@]2(C)[C@H](c3ccoc3)CC(=O)C12O` (some centres undefined), for which the Kd is > 4 mM (inactive).

Take `O=C(O)CCCN1CNC(=S)NC1`: the Kd is > 4 mM (inactive).

As for `O=C(O)CCc1nc2ccccc2[nH]c1=O`, the Kd was > 4 mM (inactive).

As to `O=C(NC(=S)NN1CCOCC1)c1cccs1`, the Kd is > 4 mM (inactive).

`COc1cc(C)c(S(=O)(=O)N2CCN(C)CC2)cc1C`: the Kd is > 4 mM (inactive).

With `CCN1CCc2c(sc(N)c2C(N)=O)C1`, the Kd was > 4 mM (inactive).

In the case of `Cn1c(=O)cc(O)c2ccccc21`, the Kd was > 4 mM (inactive).

`CC(C)=CCC[C@](C)(O)C1CC=C(C)CC1` (some centres undefined): the Kd was > 4 mM (inactive).

In the case of `Cc1occc1C(=O)Nc1ccc(C(N)=O)cc1`, the Kd is > 4 mM (inactive).

For `CNC(=O)C(=O)Nc1ccc(C)c(C)c1`, the Kd is > 4 mM (inactive).

In the case of `Cc1nn(C)c2sc(C(=O)O)cc12`, the Kd was > 4 mM (inactive).

For `Oc1ccccc1C(=S)N1CCCCCC1`, the Kd is > 4 mM (inactive).

As to `COc1cc2c(cc1O)CCNC2C` (centres undefined), the Kd is > 4 mM (inactive).

With `N[C@@H](C(=O)O)[C@@H](O)[C@H](O)[C@H](O)CO`, the Kd is > 4 mM (inactive).

As to `CS(=O)(=O)N/N=C/c1cccs1`, the Kd is > 4 mM (inactive).

Consider `CNC(=O)c1cc2cccc(OC)c2oc1=O`, for which the Kd is > 4 mM (inactive).

On to `O=C1C[C@@H](c2ccccc2)Oc2cc(O)cc(O)c21`, for which the Kd was > 4 mM (inactive).

For `O=C1CC(=O)N(c2ccccc2)c2ccccc21`, the Kd was > 4 mM (inactive).

`COc1cc(C(=O)O[C@H]2CC[C@@]3(C)[C@@H]4CC[C@H]5[C@]6(O)C[C@H](O)[C@@]7(O)[C@@H](CN8C[C@@H](C)CC[C@H]8[C@@]7(C)O)[C@]6(O)C[C@@]53OC24O)cc(OC)c1OC`: the Kd is > 4 mM (inactive).

On to `Cc1nc(SCC#N)c2c(C)c(C)sc2n1`, for which the Kd was > 4 mM (inactive).

Turning to `Cc1sc(N)c(C(N)=O)c1C`, the Kd was > 4 mM (inactive).

As to `C/C(N)=C/C(=O)N1CCCCC1`, the Kd is > 4 mM (inactive).

As to `CC(C)[C@@H]1CC[C@@H](C)CC1=O`, the Kd is > 4 mM (inactive).

With `O=S1(=O)CCC(NC(=S)Nc2ccc(O)cc2)C1` (centres undefined), the Kd was > 4 mM (inactive).

As for `O=C(O)CCCCC1SCC2NC(=O)NC21` (centres undefined), the Kd is > 4 mM (inactive).

For the molecule `Cc1cc(C)n(CCC(=O)O)n1`, the Kd was > 4 mM (inactive).

Consider `CC1(C)Cc2c(c(-c3ccco3)[nH]c(=O)c2C#N)CO1`, for which the Kd is > 4 mM (inactive).

With `CC(C)n1nnc2cc(C(=O)O)ccc21`, the Kd is > 4 mM (inactive).

Regarding `N[C@@H](Cc1cc(I)c(Oc2cc(I)c(O)c(I)c2)c(I)c1)C(=O)O`, the Kd was > 4 mM (inactive).

Regarding `Oc1ccccc1N1CCOCC1`, the Kd is > 4 mM (inactive).

With `CN(C)N1C(=O)c2ccccc2C1=O`, the Kd is > 4 mM (inactive).

A word on the Kd: it is the free concentration of one partner at which half of the binding sites on the other are occupied at equilibrium, for simple one-to-one binding.
